Assay results as given in ChEMBL document CHEMBL4346687, “Design, synthesis and biological evaluation of novel uracil derivatives bearing 1, 2, 3-triazole moiety as thymidylate synthase (TS) inhibitors and as potential antitumor drugs” (Eur J Med Chem, 2019).
The source made the active and inactive calls. The rule behind the calls is not given here.

Tests used:
A549 [1] = assay: Antiproliferative activity against human A549 cells assessed as reduction in cell viability at 5 uM after 24 hrs by MTT assay; type: functional; details: A549, 24 h
A549 [2] = assay: Induction of early apoptosis in human A549 cells after 24 hrs by Annexin V-FITC/propidium iodide staining based flow cytometric analysis; type: functional, cell-based
A549 [3] = assay: Induction of apoptosis in human A549 cells assessed as down regulation of Bcl-2 protein expression at 0.5 to 1.5 uM after 24 hrs by Western blot analysis; type: functional, cell-based
A549 [4] = assay: Antiproliferative activity against human A549 cells assessed as reduction in cell viability at 1.25 uM after 24 hrs by MTT assay; type: functional; details: A549, 24 h
A549 [5] = assay: Induction of apoptosis in human A549 cells assessed as up regulation of Bax protein expression at 0.5 to 1.5 uM after 24 hrs by Western blot analysis; type: functional, cell-based
A549 [6] = assay: Cell cycle arrest in human A549 cells assessed as increase in G0/G1 phase at 0.5 to 1.5 uM after 24 hrs by propidium iodide staining based flow cytometric analysis; type: functional
A549 [7] = assay: Cell cycle arrest in human A549 cells assessed as decrease in S phase at 0.5 to 1.5 uM after 24 hrs by propidium iodide staining based flow cytometric analysis; type: functional
A549 [8] = assay: Induction of apoptosis in human A549 cells assessed as late apoptotic cells at 1.5 uM after 24 hrs by Annexin V-FITC/propidium iodide staining based flow cytometric analysis (reference value: 1.1%); type: functional
SGC-7901 = assay: cells; details: Homo sapiens, SGC-7901, 24 h
Description: Antiproliferative activity against human SGC7901 cells assessed as reduction in cell viability after 24 hrs by MTT assay

[9] = Cytotoxicity against human IOSE-80 cells assessed as reduction in cell viability after 24 hrs by MTT assay; type: cell-based; details: IOSE-80 cells
A549 [10] = assay: Cell cycle arrest in human A549 cells assessed as decrease in G2/M phase at 0.5 to 1.5 uM after 24 hrs by propidium iodide staining based flow cytometric analysis; type: functional
A549 [11] = assay: Cell cycle arrest in human A549 cells assessed as decrease in Cyclin E protein expression at 0.5 to 1.5 uM after 24 hrs by Western blot analysis; type: functional, cell-based
A549 [12] = assay: Induction of apoptosis in human A549 cells assessed as necrotic cells at 0.5 uM after 24 hrs by Annexin V-FITC/propidium iodide staining based flow cytometric analysis (reference value: 0.1%); type: functional
A549 [13] = assay: Induction of apoptosis in human A549 cells assessed as decrease in ratio of Bcl-2/Bax at 0.5 to 1.5 uM after 24 hrs by Western blot analysis; type: functional, cell-based
A549 [14] = assay: Induction of apoptosis in human A549 cells assessed as late apoptotic cells at 1 uM after 24 hrs by Annexin V-FITC/propidium iodide staining based flow cytometric analysis (reference value: 1.1%); type: functional
A549 [15] = assay: Induction of apoptosis in human A549 cells assessed as early apoptotic cells at 0.5 uM after 24 hrs by Annexin V-FITC/propidium iodide staining based flow cytometric analysis (reference value: 0.6%); type: functional
A549 [16] = assay: Induction of apoptosis in human A549 cells assessed as viable cells at 1.5 uM after 24 hrs by Annexin V-FITC/propidium iodide staining based flow cytometric analysis (reference value: 98.2%); type: functional; details: A549, 24 h, read-out: Activity
A549 [17] = assay: Cell cycle arrest in human A549 cells assessed as decrease in Cyclin D protein expression at 0.5 to 1.5 uM after 24 hrs by Western blot analysis; type: functional, cell-based
A549 [18] = assay: Induction of apoptosis in human A549 cells assessed as activation of caspase-3 protein level at 0.5 to 1.5 uM after 24 hrs by Western blot analysis; type: functional, cell-based
A549 [19] = assay: cells; details: Homo sapiens, A549, 24 h
Description: Antiproliferative activity against human A549 cells assessed as reduction in cell viability after 24 hrs by MTT assay

A549 [20] = assay: Induction of apoptosis in human A549 cells assessed as necrotic cells at 1.5 uM after 24 hrs by Annexin V-FITC/propidium iodide staining based flow cytometric analysis (reference value: 0.1%); type: functional
A549 [21] = assay: Induction of apoptosis in human A549 cells assessed as late apoptotic cells at 0.5 uM after 24 hrs by Annexin V-FITC/propidium iodide staining based flow cytometric analysis (reference value: 1.1%); type: functional
OVCAR-3 = assay: cells; details: Homo sapiens, OVCAR-3, 24 h
Description: Antiproliferative activity against human OVCAR3 cells assessed as reduction in cell viability after 24 hrs by MTT assay

A549 [22] = assay: Induction of apoptosis in human A549 cells assessed as increase in cleaved caspase-3 protein level at 0.5 to 1.5 uM after 24 hrs by Western blot analysis; type: functional, cell-based
A549 [23] = assay: Antiproliferative activity against human A549 cells assessed as reduction in cell viability at 10 uM after 24 hrs by MTT assay; type: functional; details: A549, 24 h
[24] = Cytotoxicity against human HPAEpic cells assessed as reduction in cell viability after 24 hrs by MTT assay; type: cell-based; details: HPAEpic cells
A549 [25] = assay: Induction of apoptosis in human A549 cells assessed as viable cells at 0.5 uM after 24 hrs by Annexin V-FITC/propidium iodide staining based flow cytometric analysis (reference value: 98.2%); type: functional; details: A549, 24 h, read-out: Activity
A549 [26] = assay: Antiproliferative activity against human A549 cells assessed as reduction in cell viability at 20 uM after 24 hrs by MTT assay; type: functional; details: A549, 24 h
A549 [27] = assay: Induction of apoptosis in human A549 cells assessed as early apoptotic cells at 1 uM after 24 hrs by Annexin V-FITC/propidium iodide staining based flow cytometric analysis (reference value: 0.6%); type: functional
[28] = Cytotoxicity against human L02 cells assessed as reduction in cell viability after 24 hrs by MTT assay; type: cell-based; details: L02 cells
A549 [29] = assay: Antiproliferative activity against human A549 cells assessed as reduction in cell viability at 0.625 uM after 24 hrs by MTT assay; type: functional; details: A549, 24 h
HepG2 = assay: cells; details: Homo sapiens, HepG2, 24 h
Description: Antiproliferative activity against human HepG2 cells assessed as reduction in cell viability after 24 hrs by MTT assay

A549 [30] = assay: Induction of late apoptosis in human A549 cells after 24 hrs by Annexin V-FITC/propidium iodide staining based flow cytometric analysis; type: functional, cell-based
A549 [31] = assay: Induction of apoptosis in human A549 cells assessed as viable cells at 1 uM after 24 hrs by Annexin V-FITC/propidium iodide staining based flow cytometric analysis (reference value: 98.2%); type: functional; details: A549, 24 h, read-out: Activity
A549 [32] = assay: Induction of apoptosis in human A549 cells assessed as early apoptotic cells at 1.5 uM after 24 hrs by Annexin V-FITC/propidium iodide staining based flow cytometric analysis (reference value: 0.6%); type: functional
[33] = Cytotoxicity against human GES-1 cells assessed as reduction in cell viability after 24 hrs by MTT assay; type: cell-based, GES1; details: GES-1 cells
A549 [34] = assay: Induction of apoptosis in human A549 cells assessed as necrotic cells at 1 uM after 24 hrs by Annexin V-FITC/propidium iodide staining based flow cytometric analysis (reference value: 0.1%); type: functional

IC50 (SGC-7901): 2.7 µM | IC50 (A549 [19]): 1.18 µM | IC50 (OVCAR-3): 1.75 µM | IC50 (HepG2): 1.84 µM
SMILES: O=c1[nH]cc(S(=O)(=O)Nc2ccccc2-c2cn(-c3ccc(Cl)cc3)nn2)c(=O)[nH]1
inhibition at 5 µM (A549 [1]): 75.5% | Activity (A549 [2]): Dose-dependent effect | Activity (A549 [3]): Active | inhibition at 1.25 µM (A549 [4]): 55.5% | Activity (A549 [5]): Active | Activity (A549 [6]): Dose-dependent effect | Activity (A549 [7]): Dose-dependent effect | Activity (A549 [8]): 7.1% | CC50 at 24 h [9]: 16.5 µM | Activity (A549 [10]): Dose-dependent effect | Activity (A549 [11]): Dose-dependent effect | Activity (A549 [12]): 0.1% | Activity (A549 [13]): Active | Activity (A549 [14]): 5.6% | Activity (A549 [15]): 1.3% | viability at 1.5 µM (A549 [16]): 84.2% | Activity (A549 [17]): Dose-dependent effect | Activity (A549 [18]): Active | Activity (A549 [20]): 4.5% | Activity (A549 [21]): 2.1% | Activity (A549 [22]): Active | inhibition at 10 µM (A549 [23]): 77.3% | CC50 at 24 h [24]: 20.4 µM | viability at 0.5 µM (A549 [25]): 96.5% | inhibition at 20 µM (A549 [26]): 80.2% | Activity (A549 [27]): 3.5% | CC50 at 24 h [28]: 16.8 µM | inhibition at 0.625 µM (A549 [29]): 32% | Activity (A549 [30]): Dose-dependent effect | viability at 1 µM (A549 [31]): 89.7% | Activity (A549 [32]): 4.1% | CC50 at 24 h [33]: 26.7 µM | Activity (A549 [34]): 1.2%
